Laboratory results as given in publication PMC8213057, “Targeting ALK2: An Open Science Approach to Developing Therapeutics for the Treatment of Diffuse Intrinsic Pontine Glioma” (Journal of Medicinal Chemistry, 2020).

Columns and labels:
SIK2 = target: T1, SIK2 (Homo sapiens, UniProt Q9H0K1); test: 375-member kinase panel; type: biochemical; conditions: Run 1, Run 2; for % enzyme activity: 1 μM; for remaining activity at 1 µM: read-out: % enzyme activity, 1 μM
T1 construct: purchased Reaction Biology Corporation
T1 sequence (Q9H0K1 whole entry): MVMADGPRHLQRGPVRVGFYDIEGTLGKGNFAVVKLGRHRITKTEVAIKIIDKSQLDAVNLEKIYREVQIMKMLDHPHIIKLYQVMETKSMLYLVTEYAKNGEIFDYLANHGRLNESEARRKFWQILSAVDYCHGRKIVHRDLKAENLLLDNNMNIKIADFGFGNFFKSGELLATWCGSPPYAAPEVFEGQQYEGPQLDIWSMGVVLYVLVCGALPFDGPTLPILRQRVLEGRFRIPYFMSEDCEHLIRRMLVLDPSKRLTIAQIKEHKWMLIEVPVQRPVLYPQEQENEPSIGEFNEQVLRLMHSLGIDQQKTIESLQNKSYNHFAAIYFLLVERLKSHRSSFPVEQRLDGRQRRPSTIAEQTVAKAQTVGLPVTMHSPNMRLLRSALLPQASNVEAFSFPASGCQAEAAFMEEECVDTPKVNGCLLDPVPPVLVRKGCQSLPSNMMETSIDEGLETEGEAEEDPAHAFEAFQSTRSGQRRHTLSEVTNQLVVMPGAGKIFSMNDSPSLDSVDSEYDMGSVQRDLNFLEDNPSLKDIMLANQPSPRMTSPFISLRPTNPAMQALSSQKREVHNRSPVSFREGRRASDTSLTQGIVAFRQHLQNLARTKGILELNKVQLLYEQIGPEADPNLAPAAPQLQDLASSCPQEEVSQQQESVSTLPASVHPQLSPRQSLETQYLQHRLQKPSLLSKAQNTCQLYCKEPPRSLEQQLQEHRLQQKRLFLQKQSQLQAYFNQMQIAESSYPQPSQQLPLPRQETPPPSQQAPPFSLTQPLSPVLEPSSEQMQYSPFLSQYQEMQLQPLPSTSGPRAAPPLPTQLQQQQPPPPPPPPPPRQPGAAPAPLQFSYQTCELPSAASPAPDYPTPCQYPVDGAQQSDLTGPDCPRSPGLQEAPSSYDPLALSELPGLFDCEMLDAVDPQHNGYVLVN

ZAK/MLTK = ZAK/MLTK (Homo sapiens, UniProt Q9NYL2); test: 375-member kinase panel; type: biochemical; conditions: Run 1, Run 2; for % enzyme activity: 1 μM; for remaining activity at 1 µM: read-out: % enzyme activity, 1 μM
Sequence of ZAK/MLTK (Q9NYL2 whole entry): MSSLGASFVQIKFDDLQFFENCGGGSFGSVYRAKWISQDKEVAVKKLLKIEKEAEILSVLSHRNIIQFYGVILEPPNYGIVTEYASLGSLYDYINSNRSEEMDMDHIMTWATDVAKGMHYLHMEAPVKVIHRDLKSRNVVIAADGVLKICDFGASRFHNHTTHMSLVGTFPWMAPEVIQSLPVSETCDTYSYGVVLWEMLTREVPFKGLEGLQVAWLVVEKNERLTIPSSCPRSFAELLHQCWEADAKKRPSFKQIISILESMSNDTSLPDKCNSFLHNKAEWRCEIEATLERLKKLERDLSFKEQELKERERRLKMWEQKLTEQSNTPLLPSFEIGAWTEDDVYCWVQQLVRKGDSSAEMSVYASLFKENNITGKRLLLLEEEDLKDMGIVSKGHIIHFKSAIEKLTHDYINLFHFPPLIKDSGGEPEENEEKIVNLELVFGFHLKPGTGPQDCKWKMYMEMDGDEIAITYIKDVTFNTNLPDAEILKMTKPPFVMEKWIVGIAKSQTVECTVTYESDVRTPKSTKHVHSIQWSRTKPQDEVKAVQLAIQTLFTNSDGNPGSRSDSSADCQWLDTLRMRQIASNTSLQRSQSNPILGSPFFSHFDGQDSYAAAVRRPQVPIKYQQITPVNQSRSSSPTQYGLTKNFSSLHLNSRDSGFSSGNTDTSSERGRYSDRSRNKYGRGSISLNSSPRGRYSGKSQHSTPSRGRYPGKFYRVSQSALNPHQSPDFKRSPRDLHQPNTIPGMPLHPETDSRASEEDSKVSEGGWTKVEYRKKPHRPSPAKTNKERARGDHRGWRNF

Aurora A = target: T2, Aurora A (Homo sapiens, UniProt O14965); conditions: 1 μM; Run 1, Run 2
T2 sequence (O14965 1-403): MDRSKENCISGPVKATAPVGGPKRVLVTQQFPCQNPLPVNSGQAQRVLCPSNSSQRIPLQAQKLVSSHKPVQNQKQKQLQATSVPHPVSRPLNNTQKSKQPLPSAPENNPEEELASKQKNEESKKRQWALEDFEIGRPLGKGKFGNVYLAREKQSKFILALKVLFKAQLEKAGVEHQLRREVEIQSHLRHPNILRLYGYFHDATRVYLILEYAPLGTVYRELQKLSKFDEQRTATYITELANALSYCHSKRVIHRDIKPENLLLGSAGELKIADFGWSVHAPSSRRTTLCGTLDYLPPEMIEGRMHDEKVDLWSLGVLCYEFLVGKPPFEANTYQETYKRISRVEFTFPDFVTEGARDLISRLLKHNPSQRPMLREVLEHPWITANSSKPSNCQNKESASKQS

NEK5 = target: T3, NEK5 (Homo sapiens, UniProt Q6P3R8); conditions: 1 μM; Run 1, Run 2
T3 sequence (Q6P3R8 1-708): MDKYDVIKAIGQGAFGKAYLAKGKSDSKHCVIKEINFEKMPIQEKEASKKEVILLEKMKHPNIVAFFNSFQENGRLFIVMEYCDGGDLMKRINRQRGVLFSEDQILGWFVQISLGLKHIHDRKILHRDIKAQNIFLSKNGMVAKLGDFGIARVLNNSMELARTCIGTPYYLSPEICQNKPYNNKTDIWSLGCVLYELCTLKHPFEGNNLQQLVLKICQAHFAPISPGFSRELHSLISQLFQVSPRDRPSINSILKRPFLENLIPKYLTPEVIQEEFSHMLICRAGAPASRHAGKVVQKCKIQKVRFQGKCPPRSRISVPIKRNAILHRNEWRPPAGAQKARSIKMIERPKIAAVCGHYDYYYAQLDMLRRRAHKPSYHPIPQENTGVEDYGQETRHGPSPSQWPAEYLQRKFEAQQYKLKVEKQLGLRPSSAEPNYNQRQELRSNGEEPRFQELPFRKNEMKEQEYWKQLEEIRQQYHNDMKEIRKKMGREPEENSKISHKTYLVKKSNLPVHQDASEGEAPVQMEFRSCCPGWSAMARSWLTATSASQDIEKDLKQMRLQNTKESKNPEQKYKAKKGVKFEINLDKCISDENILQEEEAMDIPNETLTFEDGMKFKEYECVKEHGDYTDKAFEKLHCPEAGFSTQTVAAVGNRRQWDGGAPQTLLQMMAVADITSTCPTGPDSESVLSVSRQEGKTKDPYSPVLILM

BMX/ETK = target: T4, BMX/ETK (Homo sapiens, UniProt P51813); test: biochemical; conditions: read-out: % enzyme activity, 1 μM; Run 1, Run 2
T4 sequence (P51813 1-675): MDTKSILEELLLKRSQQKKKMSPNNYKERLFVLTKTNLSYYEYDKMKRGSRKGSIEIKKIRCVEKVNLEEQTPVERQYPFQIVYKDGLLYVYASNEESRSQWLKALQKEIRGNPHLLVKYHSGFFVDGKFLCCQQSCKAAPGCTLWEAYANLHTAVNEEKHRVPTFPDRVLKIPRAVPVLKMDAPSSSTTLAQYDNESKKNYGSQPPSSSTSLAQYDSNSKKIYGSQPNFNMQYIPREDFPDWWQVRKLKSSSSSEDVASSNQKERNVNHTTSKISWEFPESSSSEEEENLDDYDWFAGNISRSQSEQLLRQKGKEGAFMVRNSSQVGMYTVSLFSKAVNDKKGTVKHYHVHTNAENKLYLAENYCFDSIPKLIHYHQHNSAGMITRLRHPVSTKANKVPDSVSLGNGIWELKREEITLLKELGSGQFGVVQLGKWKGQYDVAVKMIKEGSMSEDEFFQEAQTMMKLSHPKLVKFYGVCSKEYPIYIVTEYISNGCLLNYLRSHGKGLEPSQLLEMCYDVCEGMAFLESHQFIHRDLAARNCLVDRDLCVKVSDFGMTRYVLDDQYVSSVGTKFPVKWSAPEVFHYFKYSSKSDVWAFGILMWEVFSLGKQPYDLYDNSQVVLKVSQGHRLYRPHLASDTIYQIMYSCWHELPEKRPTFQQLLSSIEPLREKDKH

CAMK2g = CAMK2g (Homo sapiens, UniProt Q13555); test: biochemical; conditions: read-out: % enzyme activity, 1 μM; Run 1, Run 2
Sequence of CAMK2g (Q13555 whole entry): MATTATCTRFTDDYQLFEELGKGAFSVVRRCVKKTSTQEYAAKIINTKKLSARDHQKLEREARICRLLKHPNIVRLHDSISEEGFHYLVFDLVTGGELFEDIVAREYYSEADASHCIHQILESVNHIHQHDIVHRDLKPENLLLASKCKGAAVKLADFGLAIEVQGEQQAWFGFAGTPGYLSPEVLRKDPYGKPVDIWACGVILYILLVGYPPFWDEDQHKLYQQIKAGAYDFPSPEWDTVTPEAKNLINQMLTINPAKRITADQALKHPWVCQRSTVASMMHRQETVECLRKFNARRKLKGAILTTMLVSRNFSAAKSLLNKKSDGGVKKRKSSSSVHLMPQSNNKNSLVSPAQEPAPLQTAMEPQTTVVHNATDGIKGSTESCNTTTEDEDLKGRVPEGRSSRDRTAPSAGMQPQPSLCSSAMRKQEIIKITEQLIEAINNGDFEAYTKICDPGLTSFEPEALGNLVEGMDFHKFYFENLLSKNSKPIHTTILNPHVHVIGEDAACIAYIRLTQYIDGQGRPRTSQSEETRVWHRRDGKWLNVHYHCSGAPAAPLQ

CDK9/cyclin T2 = CDK9/cyclin T2 (Homo sapiens, UniProt P50750); test: biochemical; conditions: read-out: % enzyme activity, 1 μM; Run 1, Run 2
Sequence of CDK9/cyclin T2 (P50750 whole entry): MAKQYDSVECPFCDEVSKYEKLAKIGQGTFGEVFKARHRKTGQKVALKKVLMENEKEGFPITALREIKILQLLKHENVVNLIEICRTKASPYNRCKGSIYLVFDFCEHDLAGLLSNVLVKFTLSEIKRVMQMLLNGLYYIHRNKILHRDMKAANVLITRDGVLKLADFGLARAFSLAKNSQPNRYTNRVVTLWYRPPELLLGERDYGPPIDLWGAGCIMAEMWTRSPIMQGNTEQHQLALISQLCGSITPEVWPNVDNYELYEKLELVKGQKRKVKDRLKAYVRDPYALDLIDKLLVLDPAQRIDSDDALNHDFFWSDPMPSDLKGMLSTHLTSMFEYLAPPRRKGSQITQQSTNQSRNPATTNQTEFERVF
Sequence of CDK9/cyclin T2 (O60583 whole entry partner): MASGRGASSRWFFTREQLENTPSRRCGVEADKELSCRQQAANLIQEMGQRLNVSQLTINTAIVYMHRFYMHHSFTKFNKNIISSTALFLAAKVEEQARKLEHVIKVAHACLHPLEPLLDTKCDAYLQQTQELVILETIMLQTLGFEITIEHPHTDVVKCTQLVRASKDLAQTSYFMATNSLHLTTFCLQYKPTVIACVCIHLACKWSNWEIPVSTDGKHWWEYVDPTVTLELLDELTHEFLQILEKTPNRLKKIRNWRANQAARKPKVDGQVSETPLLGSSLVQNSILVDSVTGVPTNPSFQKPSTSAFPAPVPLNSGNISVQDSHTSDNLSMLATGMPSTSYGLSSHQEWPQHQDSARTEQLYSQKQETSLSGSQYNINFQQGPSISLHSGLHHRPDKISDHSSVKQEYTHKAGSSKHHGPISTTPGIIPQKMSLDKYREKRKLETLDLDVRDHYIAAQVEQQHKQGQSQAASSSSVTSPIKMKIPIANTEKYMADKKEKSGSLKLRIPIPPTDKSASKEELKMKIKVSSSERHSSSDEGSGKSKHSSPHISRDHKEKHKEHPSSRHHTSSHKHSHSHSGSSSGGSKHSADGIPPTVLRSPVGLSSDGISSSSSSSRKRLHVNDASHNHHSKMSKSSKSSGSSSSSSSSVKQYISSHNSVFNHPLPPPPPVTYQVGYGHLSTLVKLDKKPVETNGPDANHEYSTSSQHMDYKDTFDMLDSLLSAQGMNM

IGF1R = IGF1R (Homo sapiens, UniProt P08069); test: biochemical; conditions: read-out: % enzyme activity, 1 μM; Run 1, Run 2
Sequence of IGF1R (P08069 31-1367): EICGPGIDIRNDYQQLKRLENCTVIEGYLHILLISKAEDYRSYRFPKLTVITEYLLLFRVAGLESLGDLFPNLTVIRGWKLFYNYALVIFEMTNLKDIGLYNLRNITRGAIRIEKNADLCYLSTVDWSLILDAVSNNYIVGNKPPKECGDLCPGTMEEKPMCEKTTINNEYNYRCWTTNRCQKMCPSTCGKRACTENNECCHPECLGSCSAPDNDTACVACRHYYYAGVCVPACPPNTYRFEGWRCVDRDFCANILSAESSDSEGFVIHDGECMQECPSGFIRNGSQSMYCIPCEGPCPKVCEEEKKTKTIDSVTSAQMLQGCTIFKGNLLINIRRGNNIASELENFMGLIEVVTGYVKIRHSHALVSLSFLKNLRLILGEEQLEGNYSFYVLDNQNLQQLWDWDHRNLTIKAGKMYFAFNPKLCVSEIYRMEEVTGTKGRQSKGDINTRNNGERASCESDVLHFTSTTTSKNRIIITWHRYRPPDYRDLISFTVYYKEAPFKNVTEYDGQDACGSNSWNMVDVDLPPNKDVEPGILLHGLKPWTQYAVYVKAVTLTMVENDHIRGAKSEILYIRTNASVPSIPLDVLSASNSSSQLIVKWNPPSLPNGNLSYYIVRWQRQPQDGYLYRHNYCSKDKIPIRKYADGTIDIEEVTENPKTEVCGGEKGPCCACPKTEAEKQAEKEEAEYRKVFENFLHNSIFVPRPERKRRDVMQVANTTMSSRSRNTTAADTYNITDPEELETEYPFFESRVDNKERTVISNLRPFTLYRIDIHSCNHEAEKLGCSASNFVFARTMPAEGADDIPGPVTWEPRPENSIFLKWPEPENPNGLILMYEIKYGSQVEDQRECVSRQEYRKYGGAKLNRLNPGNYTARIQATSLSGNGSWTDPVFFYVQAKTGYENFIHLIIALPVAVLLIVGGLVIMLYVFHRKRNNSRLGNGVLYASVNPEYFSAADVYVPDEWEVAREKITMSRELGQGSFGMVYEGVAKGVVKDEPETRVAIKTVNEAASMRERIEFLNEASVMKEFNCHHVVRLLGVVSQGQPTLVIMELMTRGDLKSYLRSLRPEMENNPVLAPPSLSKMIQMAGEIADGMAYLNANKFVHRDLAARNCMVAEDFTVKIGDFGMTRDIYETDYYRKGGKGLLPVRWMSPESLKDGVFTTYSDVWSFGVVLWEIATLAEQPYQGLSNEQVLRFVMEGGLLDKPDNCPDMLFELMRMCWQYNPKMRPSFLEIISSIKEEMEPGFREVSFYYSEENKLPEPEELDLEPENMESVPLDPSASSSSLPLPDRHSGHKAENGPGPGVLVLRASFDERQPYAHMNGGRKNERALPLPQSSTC

MYLK3 = target: T5, MYLK3 (Homo sapiens, UniProt Q32MK0); test: biochemical; conditions: read-out: % enzyme activity, 1 μM; Run 1, Run 2
T5 sequence (Q32MK0 1-819): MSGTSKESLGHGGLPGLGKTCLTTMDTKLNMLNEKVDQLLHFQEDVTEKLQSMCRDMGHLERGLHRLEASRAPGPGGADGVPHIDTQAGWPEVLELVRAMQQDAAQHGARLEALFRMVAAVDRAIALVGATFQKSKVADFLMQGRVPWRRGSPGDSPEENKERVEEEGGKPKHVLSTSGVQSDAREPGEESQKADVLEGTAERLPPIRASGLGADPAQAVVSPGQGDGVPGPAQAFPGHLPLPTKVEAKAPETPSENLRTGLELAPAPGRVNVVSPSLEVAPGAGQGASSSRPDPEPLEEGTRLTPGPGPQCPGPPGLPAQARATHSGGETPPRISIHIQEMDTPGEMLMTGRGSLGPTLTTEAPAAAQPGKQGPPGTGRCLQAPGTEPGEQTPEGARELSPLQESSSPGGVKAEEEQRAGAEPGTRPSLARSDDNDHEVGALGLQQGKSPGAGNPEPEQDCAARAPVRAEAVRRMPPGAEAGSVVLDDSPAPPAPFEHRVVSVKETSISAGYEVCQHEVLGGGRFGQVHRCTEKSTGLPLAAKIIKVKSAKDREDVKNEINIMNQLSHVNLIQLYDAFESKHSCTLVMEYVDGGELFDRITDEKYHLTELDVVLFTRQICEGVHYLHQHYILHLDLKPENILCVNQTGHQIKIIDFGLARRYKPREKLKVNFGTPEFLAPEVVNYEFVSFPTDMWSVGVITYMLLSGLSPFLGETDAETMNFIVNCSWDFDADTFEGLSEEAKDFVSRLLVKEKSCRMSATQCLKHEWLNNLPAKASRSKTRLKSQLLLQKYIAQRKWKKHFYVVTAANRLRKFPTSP

For COc1cc(-c2cncc(-c3ccc(N4CCN(C)CC4)cc3)c2C)cc(F)c1C(N)=O [Compound 26a, 2-Fluoro-6-methoxy-4-(4-methyl-5-(4-(4-methylpiperazin-1-yl)phenyl)pyridin-3-yl)benzamide], the “% enzyme activity” value (SIK2) was 30.68%, the remaining activity at 1 µM (SIK2) was 32% and the “% enzyme activity” value (ZAK/MLTK) was 30.86%. The remaining activity at 1 µM (ZAK/MLTK) was 31.3%, the “% enzyme activity” value (Aurora A) was 97.24% and the “% enzyme activity” value (NEK5) was 97.51%. The remaining activity at 1 µM (BMX/ETK) was 103%, the remaining activity at 1 µM (CAMK2g) was 103% and the remaining activity at 1 µM (CDK9/cyclin T2) was 100%. For the same compound, the remaining activity at 1 µM (IGF1R) was 99.2% and the remaining activity at 1 µM (MYLK3) was 99.8%.
For COc1cc(-c2cncc(-c3ccc(N4C[C@@H](C)N(C)[C@@H](C)C4)cc3)c2C)cc(F)c1C(N)=O [Compound 26c, 2-Fluoro-6-methoxy-4-(4-methyl-5-(4-((3R,5S)-3,4,5-trimethylpiperazin-1-yl)phenyl)pyridin-3-yl)benzamide], the “% enzyme activity” value (SIK2) was 43.50%, the remaining activity at 1 µM (SIK2) was 43.9% and the “% enzyme activity” value (ZAK/MLTK) was 46.59%. For the same compound, the remaining activity at 1 µM (ZAK/MLTK) was 46.6%, the “% enzyme activity” value (Aurora A) was 101.37% and the “% enzyme activity” value (NEK5) was 93.10%. The remaining activity at 1 µM (BMX/ETK) was 102%, the remaining activity at 1 µM (CAMK2g) was 110% and the remaining activity at 1 µM (CDK9/cyclin T2) was 102%. It also gave a remaining activity at 1 µM (IGF1R) of 96.1% and a remaining activity at 1 µM (MYLK3) of 100%.
